Columns and labels:
[1] = target: T1, TRPM2 (Homo sapiens, UniProt O94759); assay: whole-cell patch clamp; format: cell-based
[2] = target: T1, TRPM2; assay: whole-cell patch clamp, HEK293 expressing hTRPM2; format: cell-based

T1 sequence (O94759 whole entry): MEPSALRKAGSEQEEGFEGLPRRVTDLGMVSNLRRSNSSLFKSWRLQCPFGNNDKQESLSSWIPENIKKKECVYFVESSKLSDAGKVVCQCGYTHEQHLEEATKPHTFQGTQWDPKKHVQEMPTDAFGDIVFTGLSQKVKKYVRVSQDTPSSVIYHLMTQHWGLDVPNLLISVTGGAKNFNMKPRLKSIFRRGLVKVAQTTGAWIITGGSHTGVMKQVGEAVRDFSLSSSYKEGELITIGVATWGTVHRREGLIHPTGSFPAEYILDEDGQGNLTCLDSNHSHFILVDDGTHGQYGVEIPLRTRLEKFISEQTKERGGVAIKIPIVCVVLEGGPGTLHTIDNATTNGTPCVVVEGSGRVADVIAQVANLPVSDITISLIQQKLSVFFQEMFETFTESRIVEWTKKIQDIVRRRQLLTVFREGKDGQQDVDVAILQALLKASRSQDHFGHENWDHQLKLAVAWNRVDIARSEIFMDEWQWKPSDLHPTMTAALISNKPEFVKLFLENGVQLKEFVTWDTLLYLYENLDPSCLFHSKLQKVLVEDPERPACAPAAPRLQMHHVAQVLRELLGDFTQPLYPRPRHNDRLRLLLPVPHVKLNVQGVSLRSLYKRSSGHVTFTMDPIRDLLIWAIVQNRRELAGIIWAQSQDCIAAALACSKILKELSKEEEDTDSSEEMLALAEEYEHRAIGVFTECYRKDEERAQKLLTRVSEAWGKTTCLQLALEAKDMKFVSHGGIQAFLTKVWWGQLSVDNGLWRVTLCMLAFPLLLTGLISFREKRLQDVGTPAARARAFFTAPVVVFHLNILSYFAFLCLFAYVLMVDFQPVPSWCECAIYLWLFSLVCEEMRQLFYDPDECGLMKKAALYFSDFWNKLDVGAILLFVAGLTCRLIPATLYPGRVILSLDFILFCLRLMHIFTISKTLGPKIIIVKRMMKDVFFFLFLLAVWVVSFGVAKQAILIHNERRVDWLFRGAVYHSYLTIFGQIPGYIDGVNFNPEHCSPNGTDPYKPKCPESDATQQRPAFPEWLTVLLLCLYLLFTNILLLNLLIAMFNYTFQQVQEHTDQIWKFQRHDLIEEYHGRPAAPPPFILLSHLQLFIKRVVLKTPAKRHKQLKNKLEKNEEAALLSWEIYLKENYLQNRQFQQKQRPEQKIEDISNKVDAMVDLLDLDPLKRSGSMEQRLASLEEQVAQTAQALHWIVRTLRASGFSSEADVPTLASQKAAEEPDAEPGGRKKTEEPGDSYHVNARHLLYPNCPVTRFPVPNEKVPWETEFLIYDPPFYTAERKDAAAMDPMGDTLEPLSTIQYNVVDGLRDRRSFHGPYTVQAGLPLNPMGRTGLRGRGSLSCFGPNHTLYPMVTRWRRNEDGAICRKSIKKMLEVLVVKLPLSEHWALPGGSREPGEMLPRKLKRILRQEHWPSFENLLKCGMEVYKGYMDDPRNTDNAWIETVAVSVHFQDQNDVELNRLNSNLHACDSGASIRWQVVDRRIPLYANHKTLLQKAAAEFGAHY

Nc1ncnc2c1ncn2[C@@H]1O[C@H](COP(=O)(O)OP(=O)(O)OC[C@H]2OC(O)[C@H](O)[C@@H]2O)[C@@H](O)[C@H]1O (stereo partly drawn) [compound 1, ADPR]
EC50 [1]: 28 µM

Nc1ncnc2c1ncn2[C@@H]1O[C@H](COP(=O)(O)OP(=O)(O)OC[C@H]2OC(O)[C@H](O)[C@@H]2O)C[C@H]1O (stereo partly drawn) [compound 17, 3′-deoxy-ADPR]
EC50 [2]: 46 µM

Nc1ncnc2c1ncn2[C@@H]1O[C@H](COP(=O)(O)OP(=O)(O)OC[C@H]2OC(O)[C@H](O)[C@@H]2O)[C@@H](O)[C@H]1OP(=O)(O)O (stereo partly drawn) [compound 15, 2′-phospho-ADPR]
EC50 [2]: 110 µM

From paper PMC5563452 (Nature chemical biology, 2017)
